From patent US9957271B2, “Substituted bicyclic aza-heterocycles and analogues as sirtuin modulators” (GlaxoSmithKline, LLC, priority 2012, dated 2018) come the findings set out here.

Read-outs that look alike come from different tables or passages of the source.

The target of this assay is T1, SIRT1 (Homo sapiens, UniProt Q96EB6).
T1 sequence (Q96EB6 1-747): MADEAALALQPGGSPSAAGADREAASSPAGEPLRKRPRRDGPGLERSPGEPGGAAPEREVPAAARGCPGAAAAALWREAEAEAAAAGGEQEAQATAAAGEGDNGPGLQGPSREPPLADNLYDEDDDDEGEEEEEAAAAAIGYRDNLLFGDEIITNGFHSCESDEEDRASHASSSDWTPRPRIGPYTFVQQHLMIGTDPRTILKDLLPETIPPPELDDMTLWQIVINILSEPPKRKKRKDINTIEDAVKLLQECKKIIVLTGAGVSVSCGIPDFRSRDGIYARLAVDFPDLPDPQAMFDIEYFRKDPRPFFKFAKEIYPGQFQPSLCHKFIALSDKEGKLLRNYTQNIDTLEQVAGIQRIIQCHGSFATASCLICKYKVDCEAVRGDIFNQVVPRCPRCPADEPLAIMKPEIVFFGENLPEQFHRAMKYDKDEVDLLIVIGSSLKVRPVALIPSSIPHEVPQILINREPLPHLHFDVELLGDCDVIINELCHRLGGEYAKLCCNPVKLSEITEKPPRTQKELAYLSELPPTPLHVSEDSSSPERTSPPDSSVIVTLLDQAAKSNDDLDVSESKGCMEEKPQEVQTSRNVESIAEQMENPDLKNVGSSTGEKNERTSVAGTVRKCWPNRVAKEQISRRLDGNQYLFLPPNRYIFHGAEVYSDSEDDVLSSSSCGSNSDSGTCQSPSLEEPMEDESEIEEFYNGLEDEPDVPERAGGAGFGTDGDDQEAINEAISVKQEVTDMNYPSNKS
The assay is described as follows: TAMRA based mass spectrometry assay of SIRT1 activity. Type of assay: biochemical. Particulars: for Emax: read-out: TAMRA % Fold Act. Summed up:
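Recombinant N-terminal His-tagged human SIRT1 (10 nM, E. coli) incubated 25 min at 25 °C with 0.5 μM 5TMR-labelled p53-derived acetyl-peptide and 120 μM βNAD+ in Tris-acetate pH 8 buffer with DTT and 0.05% BSA, compound at varying concentrations. Stopped with formic acid; deacetylated peptide or OAADPR measured by mass spectrometry relative to DMSO controls.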

[1] abbreviates: TAMRA assay, concentration giving 150% activation of SIRT1.
Setting [2] is: TAMRA assay, percent maximum fold activation.
The mark [3] stands for this setting: concentration of test compound giving 150% activation of SIRT1, TAMRA peptide substrate.
Where [4] appears, read: percent maximum fold activation of SIRT1, TAMRA peptide substrate.
Where [5] appears, read: TAMRA peptide substrate, concentration giving 150% activation of SIRT1.
Where [6] appears, read: TAMRA peptide substrate, percent maximum fold activation.

In the case of `O=C(Nc1ccncc1)c1cnn2ccc(-c3ccccc3C(F)(F)F)nc12` [Compound 240, N-(pyridin-4-yl)-5-(2-(trifluoromethyl)phenyl)pyrazolo[1,5-a]pyrimidine-3-carboxamide], the “TAMRA EC1.5 (μM)” value under setting [1] is “A (EC1.5<1 μM)”. In addition, under setting [2], the Emax is at least 350%.

On to `Cc1nc2ccc(-c3ccccc3OC[C@H](O)CO)nn2c1C(=O)Nc1ccc(F)cn1` [Compound 819], for which the “TAMRA EC1.5 (μM)” value under setting [1] is “A (EC1.5<1 μM)”. Further, under setting [2], the Emax was at least 350%.

For `Cc1nc2ccc(-c3ccccc3Cl)nn2c1NC(=O)c1cscn1` [Compound 350], under setting [1], the “TAMRA EC1.5 (μM)” value is recorded as “C (EC1.5>25 μM)”. In addition, under setting [2], the Emax is below 350%.

Turning to `O=C(Nc1cnc2ccc(-c3ccccc3C(F)(F)F)nn12)c1ccc(CN2CCOCC2)nc1` [Compound 147], under setting [3], the “TAMRA EC1.5 (μM)” value is “B (EC1.5 1-25 μM)”. The Emax under setting [4] is below 350%.

As to `CS(=O)(=O)c1ccccc1-c1ccc2ncc(C(=O)Nc3ccncc3)n2n1` [Compound 187], under setting [3], the “TAMRA EC1.5 (μM)” value is “C (EC1.5>25 μM)”. The Emax under setting [4] was below 350%.

With `O=C(Nc1ncc(N2CCOCC2)s1)c1cnc2ccc(-c3ccccc3C(F)(F)F)nn12` [Compound 151], the “TAMRA EC1.5 (μM)” value under setting [3] is on record as “A (EC1.5<1 μM)”. The Emax under setting [4] was at least 350%.

As for `Cc1cc(C)nc(NC(=O)c2cnc3ccc(N4CCC(F)(F)C4)nn23)c1` [Compound 492], the “TAMRA EC1.5” value under setting [5] was “B (EC1.5 1-25 μM)”. The Emax under setting [6] is below 350%.

With `Cc1cc(NC(=O)c2cnn3ccc(-c4ccccc4C(F)(F)F)nc23)nc(C)n1` [Compound 503], the “TAMRA EC1.5” value under setting [5] is reported as “A (EC1.5<1 μM)”. For the same molecule, the Emax under setting [6] was at least 350%.

For the molecule `O=C(Nc1cccc(N2CCOCC2)n1)c1cnc2ccc(-c3ccccc3OCC(O)CO)nn12` (stereo not shown) [Compound 367, 6-(2-(2,3-dihydroxypropoxy)phenyl)-N-(6-morpholinopyridin-2-yl)imidazo[1,2-b]pyridazine-3-carboxamide], the “TAMRA EC1.5 (μM)” value under setting [1] is “A (EC1.5<1 μM)”. The Emax under setting [2] was at least 350%.

In the case of `Cc1nc2ccc(-c3ccccc3C(F)(F)F)nn2c1C(=O)Nc1cccnn1` [Compound 462, 2-methyl-N-(pyridazin-3-yl)-6-(2-(trifluoromethyl)phenyl)imidazo[1,2-b]pyridazine-3-carboxamide], under setting [5], the “TAMRA EC1.5” value is “A (EC1.5<1 μM)”. Also, the Emax under setting [6] is at least 350%.

Consider `Cc1cccc(C(=O)Nc2cnc3ccc(-c4ccccc4C(F)(F)F)nn23)n1` [Compound 234], for which the “TAMRA EC1.5 (μM)” value under setting [1] is “A (EC1.5<1 μM)”. Moreover, under setting [2], the Emax was at least 350%.

As for `Cc1nc(C(=O)Nc2cnc3ccc(-c4ccccc4F)nn23)cs1` [Compound 299], under setting [1], the “TAMRA EC1.5 (μM)” value is given as “B (EC1.5 1-25 μM)”. Besides, the Emax under setting [2] is below 350%.

As to `Cc1ccc(C(=O)Nc2cnc3ccc(-c4ccccc4C(F)(F)F)nn23)c(C)n1` [Compound 394], the “TAMRA EC1.5 (μM)” value under setting [1] is given as “B (EC1.5 1-25 μM)”. Under setting [2], the Emax is below 350%.

Regarding `O=C(Nc1ccccn1)c1cnc2ccc(-c3c(F)cccc3Cl)nn12` [Compound 162], under setting [3], the “TAMRA EC1.5 (μM)” value is recorded as “B (EC1.5 1-25 μM)”. For the same molecule, the Emax under setting [4] was below 350%.

`Cc1cc(NC(=O)c2cnn3ccc(-c4ccccc4C(F)(F)F)nc23)cc(C)n1` [Compound 504]: under setting [5], the “TAMRA EC1.5” value is “A (EC1.5<1 μM)”. Also, the Emax under setting [6] was at least 350%.

Regarding `O=C(Nc1ccncc1F)c1cnc2ccc(-c3ccccc3OC(F)(F)F)nn12` [Compound 359], the “TAMRA EC1.5 (μM)” value under setting [1] is recorded as “B (EC1.5 1-25 μM)”. Moreover, under setting [2], the Emax is at least 350%.

Turning to `Cc1cc(C)nc(NC(=O)c2cnc3ccc(N4CC[C@@H](F)C4)nn23)c1` [Compound 491], the “TAMRA EC1.5” value under setting [5] is “B (EC1.5 1-25 μM)”. Further, the Emax under setting [6] is below 350%.

Take `COc1ccc(NC(=O)c2c(C)nn3ccc(-c4ccccc4C(F)(F)F)nc23)nn1` [Compound 696]: under setting [1], the “TAMRA EC1.5 (μM)” value was “A (EC1.5<1 μM)”. In addition, the Emax under setting [2] was at least 350%.

In the case of `Cc1cnc(NC(=O)c2cnn3ccc(-c4ccccc4OC(F)(F)F)nc23)c(C)n1` [Compound 689], the “TAMRA EC1.5 (μM)” value under setting [1] is reported as “C (EC1.5>25 μM)”. Moreover, the Emax under setting [2] was below 350%.

Consider `Cc1cc(C)nc(NC(=O)c2cnc3ccc(N4CC[C@H](N(C)C)C4)nn23)c1` [Compound 512], for which the “TAMRA EC1.5” value under setting [5] was “B (EC1.5 1-25 μM)”. Further, the Emax under setting [6] is below 350%.

On to `Cc1nc2ccc(-c3ccccc3OC[C@H](O)CO)nn2c1C(=O)Nc1ccncn1` [Compound 774], for which the “TAMRA EC1.5 (μM)” value under setting [1] is reported as “A (EC1.5<1 μM)”. Also, under setting [2], the Emax was below 350%.

For `Cc1cccc(NC(=O)c2cnn3ccc(-c4ccccc4C(F)(F)F)nc23)n1` [Compound 500], the “TAMRA EC1.5” value under setting [5] is given as “A (EC1.5<1 μM)”. Further, under setting [6], the Emax was at least 350%.

For the molecule `O=C(NCc1cccnc1)c1cnc2ccc(-c3cccc(C(F)(F)F)c3)nn12` [Compound 1], the “TAMRA EC1.5 (μM)” value under setting [3] is “B (EC1.5 1-25 μM)”. Besides, the Emax under setting [4] is below 350%.

Regarding `O=C(Nc1cnc2ccc(-c3ccccc3C(F)(F)F)nn12)c1ccncc1` [Compound 87], under setting [3], the “TAMRA EC1.5 (μM)” value is “C (EC1.5>25 μM)”. For the same molecule, the Emax under setting [4] was below 350%.

Consider `N#Cc1ccccc1-c1ccc2ncc(C(=O)Nc3ccccn3)n2n1` [Compound 200], for which the “TAMRA EC1.5 (μM)” value under setting [1] is on record as “B (EC1.5 1-25 μM)”. Moreover, the Emax under setting [2] is below 350%.

With `O=C(Nc1ccccn1)c1cnc2ccc(-c3ccccc3F)nn12` [Compound 137], the “TAMRA EC1.5 (μM)” value under setting [3] is listed as “B (EC1.5 1-25 μM)”. The Emax under setting [4] was below 350%.

For `O=C(Nc1nc(CN2CCOCC2)cs1)c1cnc2ccc(-c3cccc(Cl)c3)nn12` [Compound 27], under setting [3], the “TAMRA EC1.5 (μM)” value is recorded as “A (EC1.5<1 μM)”. Besides, under setting [4], the Emax was at least 350%.

Take `COc1cccc(C(=O)Nc2c(C)nn3ccc(-c4ccccc4C(F)(F)F)nc23)n1` [Compound 576]: the “TAMRA EC1.5” value under setting [5] was “C (EC1.5>25 μM)”. Moreover, the Emax under setting [6] is below 350%.

Consider `Cc1nc(C(=O)Nc2cnc3ccc(-c4ccccc4OC(F)(F)F)nn23)c(C)s1` [Compound 318], for which the “TAMRA EC1.5 (μM)” value under setting [1] is given as “A (EC1.5<1 μM)”. In addition, the Emax under setting [2] was at least 350%.

Take `O=C(Nc1ncccn1)c1c(O)nc2ccc(-c3ccccc3C(F)(F)F)nn12` [Compound 342]: the “TAMRA EC1.5 (μM)” value under setting [1] is listed as “C (EC1.5>25 μM)”.

For the molecule `N#Cc1ccccc1-c1ccc2ncc(C(=O)Nc3ccncc3)n2n1` [Compound 203], the “TAMRA EC1.5 (μM)” value under setting [1] was “B (EC1.5 1-25 μM)”. Also, the Emax under setting [2] is below 350%.

On to `O=C(Nc1nc(CN2CCOCC2)cs1)c1cnc2ccc(-c3cccc(C(F)(F)F)c3)nn12` [Compound 6], for which the “TAMRA EC1.5 (μM)” value under setting [3] was “A (EC1.5<1 μM)”. The Emax under setting [4] was at least 350%.

As for `Cc1cc(NC(=O)c2cnn3ccc(-c4ccccc4C(F)(F)F)nc23)ccn1` [Compound 619], the “TAMRA EC1.5 (μM)” value under setting [1] is reported as “A (EC1.5<1 μM)”. For the same molecule, under setting [2], the Emax was at least 350%.

Turning to `O=C(Nc1cccc(CN2CCOCC2)n1)c1cnc2ccc(-c3cccc(F)c3Cl)nn12` [Compound 180], under setting [3], the “TAMRA EC1.5 (μM)” value was “B (EC1.5 1-25 μM)”. Moreover, the Emax under setting [4] is at least 350%.

In the case of `O=C(Nc1cccc(N2CC3(CCO3)C2)n1)c1cnc2ccc(-c3ccccc3C(F)(F)F)nn12` [Compound 538], the “TAMRA EC1.5” value under setting [5] is “A (EC1.5<1 μM)”. Moreover, the Emax under setting [6] is at least 350%.

Regarding `Cc1cc(C)nc(NC(=O)c2c(C)nc3c(C)cc(-c4ccccc4C(F)(F)F)nn23)c1` [Compound 429], the “TAMRA EC1.5” value under setting [5] was “A (EC1.5<1 μM)”. Moreover, the Emax under setting [6] was at least 350%.

For the molecule `O=C(Nc1ccncn1)c1cnc2ccc(-c3cccc(C(F)(F)F)c3)nn12` [Compound 18], the “TAMRA EC1.5 (μM)” value under setting [3] is given as “B (EC1.5 1-25 μM)”. Moreover, the Emax under setting [4] was below 350%.
